Laboratory results as given in BindingDB's records for doi:10.1074/jbc.M209367200 (University of Padova, 2003).

Biological target: Casein kinase II subunit alpha (Zea mays, UniProt P28523)
Test: Kinase Inhibition Assay
Details: pH 7.5; 22 °C
Description: In vitro kinase assay using purified enzyme, was incubated at room temperature with substrate, and test compounds in the presence of 100 uM ATP/ [gamma-33P] ATP. 33P incorporation was measured with scintillation counter. IC50 values were calculated from dose-response curves; from these calculated apparent inhibition constants (Ki) were obtained using the Cheng-Prusoff equation: Ki = IC50/ (1 + ([ATP]/Km)).

Chain of Casein kinase II subunit alpha (P28523 whole entry): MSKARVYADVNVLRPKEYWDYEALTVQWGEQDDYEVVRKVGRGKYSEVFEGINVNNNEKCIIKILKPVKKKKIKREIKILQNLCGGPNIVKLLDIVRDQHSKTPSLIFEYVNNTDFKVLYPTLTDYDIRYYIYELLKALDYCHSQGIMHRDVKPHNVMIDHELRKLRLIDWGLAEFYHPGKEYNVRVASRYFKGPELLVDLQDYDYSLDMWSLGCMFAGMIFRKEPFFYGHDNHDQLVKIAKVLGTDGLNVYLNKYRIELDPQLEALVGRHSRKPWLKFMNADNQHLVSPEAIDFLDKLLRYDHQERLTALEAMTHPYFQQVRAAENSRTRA

## O=c1c2c(O)cccc2oc2cccc(O)c12 [1,8-dihydroxy-9H-xanthen-9-one]
  Ki: > 40 µM

## O=C1c2cccc(O)c2C(=O)c2c(O)cccc21 [1,8-dihydroxy-anthraquinone]
  Ki: > 40 µM
